The experiment has as its target recombinant human Nav1.7 (Homo sapiens (Human), UniProt Q15858). The experiment is described as follows: FRET-based membrane potential assay, recombinant human sodium channel Nav1.7. Conditions: read-out: FRET-Membrane Potential Nav1.7 IC50. It is filed as cell-based. In outline: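 Channel activation used veratridine at its EC80, set by a dilution curve each experiment, together with Leiurus scorpion venom, added 3 min after compound. Membrane-potential ratio signals from FLIPR Tetra in HEPES-buffered HBSS were fitted to a four-parameter Hill equation for percent inhibition and IC50.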

The mark [1] stands for this setting: HEK293 cells stably expressing recombinant human Nav1.7, veratridine + scorpion venom depolarization.

The structures appear in SMILES notation. Like-named read-outs stand apart in the source and are kept apart here.

Usually IC50 stands for the concentration that gives 50% inhibition.

Sequence of recombinant human Nav1.7 (Q15858 whole entry): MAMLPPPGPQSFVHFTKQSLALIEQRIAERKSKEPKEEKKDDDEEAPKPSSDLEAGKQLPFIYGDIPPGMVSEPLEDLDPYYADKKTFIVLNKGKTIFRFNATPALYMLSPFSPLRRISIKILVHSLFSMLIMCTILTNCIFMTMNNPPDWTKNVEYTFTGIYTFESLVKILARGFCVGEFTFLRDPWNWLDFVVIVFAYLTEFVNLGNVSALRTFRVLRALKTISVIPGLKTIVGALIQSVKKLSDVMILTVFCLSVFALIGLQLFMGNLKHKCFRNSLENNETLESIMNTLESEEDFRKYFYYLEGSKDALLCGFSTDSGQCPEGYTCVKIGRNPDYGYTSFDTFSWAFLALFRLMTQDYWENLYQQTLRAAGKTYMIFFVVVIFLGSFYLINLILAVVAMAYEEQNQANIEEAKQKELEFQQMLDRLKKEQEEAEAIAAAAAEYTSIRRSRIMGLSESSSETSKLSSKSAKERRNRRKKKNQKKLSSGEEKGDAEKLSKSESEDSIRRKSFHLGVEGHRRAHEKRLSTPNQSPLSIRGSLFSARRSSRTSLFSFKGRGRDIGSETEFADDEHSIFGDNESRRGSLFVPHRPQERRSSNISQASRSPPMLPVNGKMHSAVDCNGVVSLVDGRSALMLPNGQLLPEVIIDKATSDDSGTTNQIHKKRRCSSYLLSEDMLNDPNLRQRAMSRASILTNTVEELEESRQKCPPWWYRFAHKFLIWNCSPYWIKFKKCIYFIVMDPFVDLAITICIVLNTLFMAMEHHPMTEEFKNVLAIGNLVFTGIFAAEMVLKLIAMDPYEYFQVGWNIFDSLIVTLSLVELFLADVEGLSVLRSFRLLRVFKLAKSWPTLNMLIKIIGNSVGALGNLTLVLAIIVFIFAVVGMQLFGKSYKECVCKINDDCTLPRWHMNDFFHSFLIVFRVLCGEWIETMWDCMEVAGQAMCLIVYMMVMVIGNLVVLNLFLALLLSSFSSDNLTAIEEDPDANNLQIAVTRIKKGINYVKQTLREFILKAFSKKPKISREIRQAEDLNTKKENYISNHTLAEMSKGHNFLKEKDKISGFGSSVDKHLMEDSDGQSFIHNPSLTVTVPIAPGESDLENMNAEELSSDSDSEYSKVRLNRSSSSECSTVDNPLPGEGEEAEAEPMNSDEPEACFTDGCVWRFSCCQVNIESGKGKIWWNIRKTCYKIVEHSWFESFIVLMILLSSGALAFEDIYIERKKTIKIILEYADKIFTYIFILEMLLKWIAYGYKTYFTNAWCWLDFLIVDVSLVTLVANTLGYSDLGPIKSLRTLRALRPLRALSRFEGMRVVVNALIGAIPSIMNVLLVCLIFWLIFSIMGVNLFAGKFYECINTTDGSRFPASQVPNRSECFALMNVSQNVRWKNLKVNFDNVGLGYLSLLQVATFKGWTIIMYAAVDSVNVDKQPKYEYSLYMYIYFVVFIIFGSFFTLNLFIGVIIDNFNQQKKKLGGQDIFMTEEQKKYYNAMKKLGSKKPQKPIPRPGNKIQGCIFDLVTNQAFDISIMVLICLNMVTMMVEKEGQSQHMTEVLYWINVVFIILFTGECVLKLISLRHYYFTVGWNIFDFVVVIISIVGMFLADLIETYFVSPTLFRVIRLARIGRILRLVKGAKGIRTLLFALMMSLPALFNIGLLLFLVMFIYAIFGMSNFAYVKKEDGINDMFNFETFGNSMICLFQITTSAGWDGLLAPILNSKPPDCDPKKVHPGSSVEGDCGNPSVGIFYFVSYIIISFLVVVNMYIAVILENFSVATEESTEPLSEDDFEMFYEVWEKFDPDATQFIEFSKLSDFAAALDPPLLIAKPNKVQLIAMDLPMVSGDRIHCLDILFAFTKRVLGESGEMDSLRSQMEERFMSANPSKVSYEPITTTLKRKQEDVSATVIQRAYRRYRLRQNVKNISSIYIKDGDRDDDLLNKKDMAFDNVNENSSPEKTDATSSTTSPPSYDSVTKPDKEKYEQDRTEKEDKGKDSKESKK

In the case of `N[C@@H]1CCN(C(=O)c2ccc3cc(Oc4ccc(C(F)(F)F)cn4)ccc3n2)C[C@H]1F` [Example 583, [(3R,4R)-4-amino-3-fluoropiperidin-1-yl](6-{[5-(trifluoromethyl)pyridin-2-yl]oxy}quinolin-2-yl)methanone], the half-maximal inhibitory concentration (IC50) was found to be 0.96 µM. Consider `N#Cc1ccc(Oc2ccc3nc(C(=O)N4CCc5ccccc54)ccc3c2)cc1` [Example 111, 4-{[2-(2,3-dihydro-1H-indol-1-ylcarbonyl)quinolin-6-yl]oxy}benzonitrile], for which the IC50 is over 20 µM. On the same count and under the same terms, the result for `O=C(NCC(=O)N1CCC1)c1ccc2cc(Oc3ccc(C(F)(F)F)cn3)ccc2n1` [Example 571, N-[2-(azetidin-1-yl)-2-oxoethyl]-6-{[5-(trifluoromethyl)pyridin-2-yl]oxy}quinoline-2-carboxamide] reads 0.448 µM. As for `O=C(NCCC(F)(F)F)c1ccc2cc(Oc3ccc(C(F)(F)F)cn3)ccc2n1` [Example 355, 6-{[5-(trifluoromethyl)pyridin-2-yl]oxy}-N-(3,3,3-trifluoropropyl)quinoline-2-carboxamide], the IC50 under setting [1] amounted to 1.27 µM. Turning to `CC(C)(C)N1CCN(C(=O)c2ccc3cc(Oc4ccc(C#N)cc4)ccc3n2)CC1` [Example 140, 4-({2-[(4-tert-butylpiperazin-1-yl)carbonyl]quinolin-6-yl}oxy)benzonitrile], under setting [1], the IC50 was 0.559 µM. In the case of `N#Cc1ccc(Oc2ccc3nc(C(=O)N4CCOCC4)ccc3c2)cc1` [Example 83, 4-{[2-(morpholin-4-ylcarbonyl)quinolin-6-yl]oxy}benzonitrile], under setting [1], the IC50 is over 20 µM. The same measure, in the same setting: in the case of `O=C(c1ccc2cc(Oc3ccc(C(F)(F)F)cn3)ccc2n1)N1CCN2C(=O)OCC2C1` (centres unmarked) [Example 329, 7-[(6-{[5-(trifluoromethyl)pyridin-2-yl]oxy}quinolin-2-yl)carbonyl]hexahydro[1,3]oxazolo[3,4-a]pyrazin-3-one] it was 9.28 µM. The same measure, in the same setting: in the case of `O=C(c1ccc2cc(Oc3ccc(C(F)(F)F)cn3)ccc2n1)N1CCCNC1` [Example 233, tetrahydropyrimidin-1(2H)-yl(6-{[5-(trifluoromethyl)pyridin-2-yl]oxy}quinolin-2-yl)methanone] it was 0.586 µM; in that of `C[C@H]1CN(C(=O)c2ccc3cc(Oc4ccc(C(F)(F)F)nc4)ccc3n2)CCN1` [Example 549, [(3S)-3-methylpiperazin-1-yl](6-{[6-(trifluoromethyl)pyridin-3-yl]oxy}quinolin-2-yl)methanone], 2.49 µM. As for `N#Cc1ccc(Oc2ccc3nc(C(=O)N[C@@H]4CCS(=O)(=O)C4)ccc3c2)cc1` [Example 160, 6-(4-cyanophenoxy)-N-[(3R)-1,1-dioxidotetrahydrothiophen-3-yl]quinoline-2-carboxamide], the IC50 came to 0.71 µM. For the compound `O=C(NCCN1CCNC1=O)c1ccc2cc(Oc3ccc(C(F)(F)F)cn3)ccc2n1` [Example 421, N-[2-(2-oxoimidazolidin-1-yl)ethyl]-6-{[5-(trifluoromethyl)pyridin-2-yl]oxy}quinoline-2-carboxamide], the IC50 under setting [1] turned out to be 1.06 µM. For the compound `CC1(C)CN(CCNC(=O)c2ccc3cc(Oc4ccc(C(F)(F)F)cn4)ccc3n2)C1` [Example 364, N-[2-(3,3-dimethylazetidin-1-yl)ethyl]-6-{[5-(trifluoromethyl)pyridin-2-yl]oxy}quinoline-2-carboxamide], the IC50 under setting [1] turned out to be 0.37 µM. `O=C1CCN(C(=O)CNC(=O)c2ccc3cc(Oc4ccc(C(F)(F)F)cn4)ccc3n2)C1` [Example 572, N-[2-oxo-2-(3-oxopyrrolidin-1-yl)ethyl]-6-{[5-(trifluoromethyl)pyridin-2-yl]oxy}quinoline-2-carboxamide]: the IC50 under setting [1] came to 2.7 µM. With `CC[C@@H]1CN(C(=O)c2ccc3cc(Oc4ccc(C(F)(F)F)nc4)ccc3n2)CCN1` [Example 543, [(3R)-3-ethylpiperazin-1-yl](6-{[6-(trifluoromethyl)pyridin-3-yl]oxy}quinolin-2-yl)methanone], the IC50 was 0.398 µM. On to `O=C(NCCNc1ccccn1)c1ccc2cc(Oc3ccc(C(F)(F)F)cn3)ccc2n1` [Example 422, N-[2-(pyridin-2-ylamino)ethyl]-6-{[5-(trifluoromethyl)pyridin-2-yl]oxy}quinoline-2-carboxamide], for which the IC50 under setting [1] was determined as 0.617 µM. `O=C(NC1CCS(=O)(=O)C1)c1ccc2cc(Oc3ccc(C(F)(F)F)nn3)ccc2n1` (centres unmarked) [Example 168, N-(1,1-dioxidotetrahydrothiophen-3-yl)-6-{[6-(trifluoromethyl)pyridazin-3-yl]oxy}quinoline-2-carboxamide]: the IC50 under setting [1] was over 20 µM. Same read-out and setting: in the case of `O=C(NC1CCC(F)(F)C1)c1ccc2cc(Oc3ccc(C(F)(F)F)cn3)ccc2n1` (centres unmarked) [Example 485, N-(3,3-difluorocyclopentyl)-6-{[5-(trifluoromethyl)pyridin-2-yl]oxy}quinoline-2-carboxamide] it was 3.14 µM; in that of `O=C(NC1CC(N2CCOCC2)C1)c1ccc2cc(Oc3ccc(C(F)(F)F)cn3)ccc2n1` (centres unmarked) [Example 433, N-[3-(morpholin-4-yl)cyclobutyl]-6-{[5-(trifluoromethyl)pyridin-2-yl]oxy}quinoline-2-carboxamide], 0.442 µM. Regarding `O=C(NCCC(=O)N1CCOCC1)c1ccc2cc(Oc3ccc(C(F)(F)F)nc3)ccc2n1` [Example 515, N-[3-(morpholin-4-yl)-3-oxopropyl]-6-{[6-(trifluoromethyl)pyridin-3-yl]oxy}quinoline-2-carboxamide], the IC50 under setting [1] stood at 4.25 µM. As to `CS(=O)(=O)C1CCN(C(=O)c2ccc3cc(Oc4ccc(C(F)(F)F)cn4)ccc3n2)CC1` [Example 254, [4-(methylsulfonyl)piperidin-1-yl](6-{[5-(trifluoromethyl)pyridin-2-yl]oxy}quinolin-2-yl)methanone], the half-inhibitory concentration (IC50) under setting [1] stood at 13.8 µM. As for `N#Cc1ccc(Oc2ccc3nc(C(=O)NCc4ccc5c(c4)OCO5)ccc3c2)cc1` [Example 104, N-(1,3-benzodioxol-5-ylmethyl)-6-(4-cyanophenoxy)quinoline-2-carboxamide], under setting [1], the 50% inhibitory concentration (IC50) was over 20 µM. `CC1(C)CCN(C(=O)c2ccc3cc(Oc4ccc(C(F)(F)F)cn4)ccc3n2)C1` [Example 405, (3,3-dimethylpyrrolidin-1-yl)(6-{[5-(trifluoromethyl)pyridin-2-yl]oxy}quinolin-2-yl)methanone]: the IC50 under setting [1] turned out to be 1.4 µM. Regarding `O=C(NCCC(=O)N1CCCC1)c1ccc2cc(Oc3ccc(C(F)F)cn3)ccc2n1` [Example 460, 6-{[5-(difluoromethyl)pyridin-2-yl]oxy}-N-[3-oxo-3-(pyrrolidin-1-yl)propyl]quinoline-2-carboxamide], the IC50 under setting [1] was 2.4 µM. With `O=C(NCCCc1ccccn1)c1ccc2cc(Oc3ccc(C(F)(F)F)cn3)ccc2n1` [Example 607, N-[3-(pyridin-2-yl)propyl]-6-{[5-(trifluoromethyl)pyridin-2-yl]oxy}quinoline-2-carboxamide], under setting [1], the half-maximal inhibitory concentration (IC50) worked out at 0.91 µM. On the same count and under the same terms, in the case of `O=C(c1ccc2cc(Oc3ccc(C(F)(F)F)cn3)ccc2n1)N1CCNC[C@H]1CO` [Example 234, [(2S)-2-(hydroxymethyl)piperazin-1-yl](6-{[5-(trifluoromethyl)pyridin-2-yl]oxy}quinolin-2-yl)methanone] it was 2.87 µM.

Turning to `O=C(c1ccc2cc(Oc3ccc(C(F)(F)F)cn3)ccc2n1)N1CCN(S(=O)(=O)CC2CCOC2)CC1` (centres unmarked) [Example 385, {4-[(tetrahydrofuran-3-ylmethyl)sulfonyl]piperazin-1-yl}(6-{[5-(trifluoromethyl)pyridin-2-yl]oxy}quinolin-2-yl)methanone], the IC50 under setting [1] turned out to be 2.33 µM.

Source of the values: US9452986B2, “6-heteroaryloxy- or 6-aryloxy-quinoline-2-carboxamides and method of use” (AbbVie Inc., priority 2014, dated 2016).
